Source: patent publication US10723741B1, “DNA polymerase IIIC inhibitors and use thereof” (Acurx Pharmaceuticals, LLC, priority 2018, dated 2020)
≈ marks a conversion by molar mass, not a printed value. Read-outs that look alike come from different tables or passages of the source.

Experiments:
Type in all cases: cell-based
[1] = test system: Escherichia coli ATCC 25922; test: Broth microdilution MIC, E. coli ATCC 25922 (MHIIB w & w/o 4 mM EDTA); conditions: broth microdilution, 37° C., 20 hours; for MIC: Escherichia coli, ATCC25922, without EDTA, read-out: MIC E. coli ATCC 25922; for MIC E. coli ATCC 25922 + 4 mM EDTA: with 4 mM EDTA
Summary of the method: (§1)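 Broth microdilution in strain-specific test medium with ~5.0×10^5 cfu/ml inoculum, 1% DMSO and two-fold compound dilutions from 64 to 0.0625 μg/ml. Plates were held 20 hours at 37° C in ambient air. S. pneumoniae colonies were grown beforehand on blood agar in 5% CO2.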

[2] = test system: Staphylococcus aureus NRS384 (MRSA); test: Broth microdilution MIC, S. aureus NRS384 (MRSA); conditions: Staphylococcus aureus, broth microdilution, 37° C., 20 hours
Summary of the method: as §1

[3] = test system: Bacillus subtilis ATCC 6633; test: Broth microdilution MIC, B. subtilis ATCC 6633; conditions: ATCC6633, broth microdilution, 37° C., 20 hours, read-out: MIC B. subtilis ATCC 6633
Summary of the method: as §1

[4] = MHIIB, read-out: MIC against S. aureus NRS 384 (MRSA)

| SMILES | MIC [1] | MIC E. coli ATCC 25922 + 4 mM EDTA [1] | MIC ([2]; read-out: MIC NRS 384 (MRSA)) | MIC [2, 4] | MIC [3] |
| --- | --- | --- | --- | --- | --- |
| Cn1ncc2nc(NCc3ccc(Cl)c(Cl)c3)[nH]c(=O)c21 [Compound 2, 5-((3,4-Dichlorobenzyl)amino)-1-methyl-1H-pyrazolo[4,3-d]pyrimidin-7(6H)-one] | > 64 µg/mL | >64 µg/mL | 1 µg/mL (≈ 3.08 µM) | ≤ 1 µg/mL | 1 µg/mL (≈ 3.08 µM) |
| Cc1nn(C)c2c(=O)[nH]c(NCc3ccc(Cl)c(Cl)c3)nc12 [Compound 44, 5-((3,4-dichlorobenzyl)amino)-1,3-dimethyl-1H-pyrazolo[4,3-d]pyrimidin-7(6H)-one] | > 64 µg/mL | >64 µg/mL | 2 µg/mL (≈ 5.91 µM) | ≤ 1 µg/mL | 2 µg/mL (≈ 5.91 µM) |
| O=c1[nH]c(NCc2ccc(Cl)c(Cl)c2)nc2cn[nH]c12 [Compound 77, 5-((3,4-dichlorobenzyl)amino)-1H-pyrazolo[4,3-d]pyrimidin-7(6H)-one] | > 64 µg/mL | >64 µg/mL | 8 µg/mL (≈ 25.8 µM) |  | 4 µg/mL (≈ 12.9 µM) |
| Cl.Cl.O=c1[nH]c(NCc2ccc(Cl)c(Cl)c2)nc2cnn(CCOCCN3CCNCC3)c12 [Compound 167, 5-[(3,4-dichlorophenyl)methylamino]-1-[2-(2-piperazin-1-ylethoxy)ethyl]-6H-pyrazolo[4,3-d]pyrimidin-7-one] | > 64 µg/mL | >64 µg/mL | > 64 µg/mL |  | 16 µg/mL |
| COC(=O)CCCCn1ncc2nc(NCc3ccc(Cl)c(Cl)c3)[nH]c(=O)c21 [Compound 218, methyl 5-[5-[(3,4-dichlorophenyl)methylamino]-7-oxo-6H-pyrazolo[4,3-d]pyrimidin-1-yl]pentanoate] | > 64 µg/mL | >64 µg/mL | 1 µg/mL (≈ 2.36 µM) | ≤ 1 µg/mL | 0.5 µg/mL (≈ 1.18 µM) |
| O=C(O)CCC(=O)N1CCC(n2ncc3nc(NCc4ccc(Cl)c(Cl)c4)[nH]c(=O)c32)CC1 [Compound 273, 4-(4-(5-((3,4-dichlorobenzyl)amino)-7-oxo-6,7-dihydro-1H-pyrazolo[4,3-d]pyrimidin-1-yl)piperidin-1-yl)-4-oxobutanoic Acid] | > 64 µg/mL | >64 µg/mL | > 64 µg/mL |  | > 64 µg/mL |

Further lines, results first:

| MIC [1] | MIC E. coli ATCC 25922 + 4 mM EDTA [1] | MIC ([2]; read-out: MIC NRS 384 (MRSA)) | MIC [2, 4] | MIC [3] | SMILES |
| --- | --- | --- | --- | --- | --- |
| > 64 µg/mL | >64 µg/mL | 0.5 µg/mL (≈ 1.43 µM) | ≤ 1 µg/mL | 0.25 µg/mL (≈ 0.714 µM) | C=CCn1ncc2nc(NCc3ccc(Cl)c(Cl)c3)[nH]c(=O)c21 [Compound 56, 1-allyl-5-((3,4-dichlorobenzyl)amino)-1H-pyrazolo[4,3-d]pyrimidin-7(6H)-one] |
| > 64 µg/mL | >64 µg/mL | 2 µg/mL (≈ 5.43 µM) |  | 1 µg/mL (≈ 2.72 µM) | COCCn1ncc2nc(NCc3ccc(Cl)c(Cl)c3)[nH]c(=O)c21 [Compound 126, 5-((3,4-dichlorobenzyl)amino)-1-(2-methoxyethyl)-1H-pyrazolo[4,3-d]pyrimidin-7(6H)-one] |
| > 64 µg/mL | 64 µg/mL | 32 µg/mL |  | 2 µg/mL | Cl.O=c1[nH]c(NCc2ccc(Cl)c(Cl)c2)nc2cnn(CC3CNCCO3)c12 (stereo not shown) [Compound 149, 5-((3,4-dichlorobenzyl)amino)-1-(morpholin-2-ylmethyl)-1H-pyrazolo[4,3-d]pyrimidin-7(6H)-one hydrochloride] |
| > 64 µg/mL | >64 µg/mL | 32 µg/mL |  | 2 µg/mL | CN(C)CCOCCn1ncc2nc(NCc3ccc(Cl)c(Cl)c3)[nH]c(=O)c21.Cl [Compound 211, 5-((3,4-dichlorobenzyl)amino)-1-(2-(2-(dimethylamino)ethoxy)ethyl)-1H-pyrazolo[4,3-d]pyrimidin-7(6H)-one hydrochloride] |
| > 64 µg/mL | >64 µg/mL | 1 µg/mL (≈ 2.59 µM) | ≤ 1 µg/mL | 1 µg/mL (≈ 2.59 µM) | O=c1[nH]c(NCc2ccc(Cl)c(Cl)c2)nc2cnn(-c3ccccc3)c12 [Compound 212, 5-[(3,4-dichlorophenyl)methylamino]-1-phenyl-6H-pyrazolo[4,3-d]pyrimidin-7-one] |
| > 64 µg/mL | >64 µg/mL | 1 µg/mL (≈ 2.86 µM) | ≤ 1 µg/mL | 0.5 µg/mL (≈ 1.43 µM) | O=c1[nH]c(NCc2ccc(Cl)c(Cl)c2)nc2cnn(C3CC3)c12 [Compound 213, 1-Cyclopropyl-5-((3,4-dichlorobenzyl)amino)-1H-pyrazolo[4,3-d]pyrimidin-7(6H)-one] |
| > 64 µg/mL | >64 µg/mL | 1 µg/mL (≈ 2.64 µM) | ≤ 1 µg/mL | 0.5 µg/mL (≈ 1.32 µM) | O=c1[nH]c(NCc2ccc(Cl)c(Cl)c2)nc2cnn(C3CCCC3)c12 [Compound 214, 1-cyclopentyl-5-((3,4-dichlorobenzyl)amino)-1H-pyrazolo[4,3-d]pyrimidin-7(6H)-one] |
| > 64 µg/mL | 32 µg/mL | 4 µg/mL |  | 2 µg/mL | Cl.O=c1[nH]c(NCc2ccc(Cl)c(Cl)c2)nc2cnn(C3CCN(C4CCOCC4)CC3)c12 [Compound 242, 5-((3,4-dichlorobenzyl)amino)-1-(1-(tetrahydro-2H-pyran-4-yl)piperidin-4-yl)-1H-pyrazolo[4,3-d]pyrimidin-7(6H)-one hydrochloride] |
| > 64 µg/mL | >64 µg/mL | 64 µg/mL (≈ 125 µM) |  | 16 µg/mL (≈ 31.3 µM) | O=C([C@@H](O)[C@H](O)CO)N1CCC(n2ncc3nc(NCc4ccc(Cl)c(Cl)c4)[nH]c(=O)c32)CC1 [Compound 276, 5-((3,4-dichlorobenzyl)amino)-1-(1-((2S,3R)-2,3,4-trihydroxybutanoyl)piperidin-4-yl)-1H-pyrazolo[4,3-d]pyrimidin-7(6H)-one] |
